From patent US12458647B2, “Macrocyclic derivative and use thereof” (Guangzhou Joyo Pharmatech Co., Ltd., priority 2022, dated 2025)

Columns and labels:
[1] = Pharmacokinetic study in Beagle dogs; format: in vivo; settings: male Beagle dogs; for AUC0-last / Cl / T1/2 / Vd / Cmax / TMax: whole blood
Experimental: To evaluate the pharmacokinetic behavior of the compounds of the present disclosure in male Beagle dogs.
The compounds to be tested were dissolved in the vehicle (5% DMSO/10% solutol/85% water). Four male beagle dogs were divided into 2 groups of 2. Group 1 animals were administered a single intravenous bolus injection (i.v.) of the compounds at a dose of 1 mg/kg. Group 2 animals were administered a single dose of the compounds by gavage (p.o.) at a dose of 5 mg/kg. Whole blood samples were collected at 0.083 (intravenous bolus group only), 0.25, 0.5, 1, 2, 4, 8 and 24 hours after dosing. The LC-MS/MS method was used to determine the concentration of the test compound in whole blood samples.

GP2D cell line = assay: In vitro cell proliferation experiment (5 days, 3D CellTiter-Glo), GP2D; format: cell-based; settings: read-out: Inhibitory Activity IC50
Experimental: (§1) RPMI 1640 medium, DMEM, Ham's F12 medium, F12K medium, IMDM and penicillin/streptomycin antibiotics were purchased from Gibco, fetal bovine serum was purchased from Hyclone, Envision multilabel plate reader (PerkinElmer). […]
(§2) The test compound was diluted by 5-fold to 8 concentrations with a pipette, i.e., from 2 mM to 25.6 nM, and replicate wells were set up for the experiment. […] Another cell plate was prepared, and the signal value was read as the maximum value (the maximum value in the following equation) on the day of dosing for data analysis.
(§3) 50 μL of cell viability chemiluminescent detection reagent was added to the cell plate and incubated at room temperature for 30 minutes to stabilize the luminescence signal. A multilabel plate reader was used for reading. […]

LOVO cells = assay: In vitro cell proliferation experiment (5 days), LOVO; format: cell-based; settings: read-out: Inhibitory Activity IC50
Experimental: as §1, §2, §3

PSN-1 cell line = assay: In vitro cell proliferation experiment (5 days), PSN-1; format: cell-based; settings: PSN-1, 5 days; read-out: Inhibitory Activity IC50
Experimental: as §1, §2, §3

[2] = In vitro determination of whole blood to plasma concentration ratios, human; format: in vitro ADME; settings: 1 μM, 37° C., 60 minutes
Experimental: (1) Fresh mouse and human whole blood (n≥3 for number of individual animals and n≥2 for number of individual humans) were collected in blood collection tubes containing EDTAK2 anticoagulant. Whole blood samples had to be mixed well and stored at 2-8° C. or on wet ice before use. They were used within 36 hours of whole blood collection. Blank whole blood was centrifuged at 2,000×g for 15 minutes at room temperature to obtain blank plasma. The plasma status was checked and hemolyzed plasma samples could not be used.
(2) The hematocrit (the percentage content of red blood cells in whole blood) was determined by centrifugation of whole blood samples in microhematocrit centrifuge tubes.
(3) Diclofenac (all species), chlorthalidone (mouse) or chloroquine (human) were used as control compounds.
(4) ACN solution containing 2% DMSO with a final concentration of 1 μM of the test compound was added to blank whole blood samples, and three parallel treatments were performed. The final content of the organic phase in the system should not exceed 0.5% (the content of DMSO should not exceed 0.1%). A certain volume of the drug-containing whole blood sample was pipetted to the sample receiving plate (three replicates), an equal volume of blank plasma was added, and mixed well to obtain the T0 sample.
(5) The whole blood sample containing the test compound was incubated at 37° C. with shaking for 60 minutes.
(6) After the end of incubation, a certain volume of whole blood samples containing the drug was pipetted to the sample receiving plate (three replicates) as T60-whole blood samples.
(7) The remaining whole blood samples were centrifuged at 2,000×g for 15 minutes in a 37° C. centrifuge to obtain plasma samples. A certain volume of plasma was pipetted to the sample receiving plate (three replicates) as T60-plasma samples.
(8) During sample treatment, all samples were equilibrated with the matrix (i.e., blank whole blood or blank plasma of the same volume was added) and mixed well.
(9) 1-fold volume of pure water was added to the equilibrated sample, and then a certain volume of stop solution containing internal standard compound was added to terminate the reaction.
(10) The analytes and control compounds in the samples were determined by liquid chromatography-tandem mass spectrometry (LC-MS/MS) method. The ratio of analyte peak area to internal standard peak area was used to represent the concentration in the sample.
See Table 7 for the experimental results. Wherein KB/P represents the concentration ratio of the compound in whole blood and plasma. KE/P represents the concentration ratio of the compound in red blood cells and plasma, and recovery (%) represents the recovery of the compound in whole blood.

RKN cell line = assay: In vitro cell proliferation experiment (5 days), RKN; format: cell-based; settings: read-out: Inhibitory Activity IC50
Experimental: as §1, §2, §3

Structure (SMILES) | AUC0-last ([1]; i.v. 1 mg/kg) [µM·h] | Cl ([1]; i.v. 1 mg/kg) [mL/kg/min] | T1/2 ([1]; i.v. 1 mg/kg) [h] | Vd ([1]; i.v. 1 mg/kg) [L/kg] | F(%) ([1]; p.o. 5 mg/kg) | AUC0-last ([1]; p.o. 5 mg/kg) [µM·h] | Cmax ([1]; p.o. 5 mg/kg) [nM] | T1/2 ([1]; p.o. 5 mg/kg) [h] | TMax ([1]; p.o. 5 mg/kg) [h] | IC50 (GP2D cell line) [nM] | IC50 (LOVO cells) [nM] | IC50 (PSN-1 cell line) [nM] | KB/P (concentration ratio of the compound in whole blood and plasma) [2] | KE/P (concentration ratio of the compound in red blood cells and plasma) [2] | Recovery (%) of the compound in whole blood [2] [%] | IC50 (RKN cell line) [nM]
CCn1c(-c2cc(N3CCN(C)CC3)cnc2C(C)OC)c2c3cc(ccc31)-c1csc(n1)CC(NC(=O)C1C(C)C1C)C(=O)N1NC(C(=O)OCC(C)(C)C2)C2CC1C2 (single isomer, unassigned) [Compound 6A] | 7.91 | 1.9 | 24.5 | 3.8 | 22 | 8.72 | 472 | 22.4 | 1.5 | 0.9 | 2.8 | 5.3 | 3.5 | 6.5 | 96.4 | 4.5
CCn1c(-c2cc(N3CCN(C)CC3)cnc2C(C)OC)c2c3cc(ccc31)-c1csc(n1)CC(NC(=O)C1CC1C)C(=O)N1NC(C(=O)OCC(C)(C)C2)C2CC1C2 (single isomer, unassigned) [Compound 7A] | 4.712 | 4.2 | 10.3 | 3.0 | 33.2 | 7.632 | 618 | 12.0 | 1.0 | – | 5.9 | 10.5 | 2.6 | 5.2 | 102.6 | 7.5
